Assay results from patent US8501162B2, “Compositions and methods for the skin and hair” (The Boots Company PLC, priority 2007, dated 2013).

Test: ABEL antioxidant assay with peroxynitrite, raw materials and combinations of three raw materials in solvent
Type: biochemical
Details: for ABEL-RAC contribution in combination: ABEL-RAC of pure ingredient x percentage of ingredient in combination
Excerpt: The ABEL antioxidant assay is an in vitro assay for testing the antioxidant capacity of a material. It utilises a photoprotein, which emits light when challenged with various free radical species, eg peroxynitrite, hydroxyl radicals or halogenated oxidants.
If a material is challenged with one or more of these free radical species, then any antioxidant in the sample will compete with the photoprotein. The result of this competition is a reduction in the amount of light emitted and sometimes, in addition, a delay in the time at which the maximum light emitted occurs. A light response curve can be produced for each sample tested, and EC50 and ABEL-RAC values calculated. The EC50 (effective concentration) is the concentration (normalised to g/L or mg/mL) of a material that reduces the light emitted by 50%. This reduction in light is a measure of the antioxidant capacity of the test material. The reciprocal of the EC50 values multiplied by 100 is referred to as the ABEL-RAC score.
The ABEL® antioxidant assay with peroxynitrite is the assay of choice to assess total antioxidant capacity because peroxynitrite attacks almost all compounds, including hydrophobic and hydrophilic antioxidants. Pro-oxidants are also identified with the peroxynitrite assay. Other ABEL® antioxidant assays use superoxide (produced as a single bolus in high concentration as well as enzymatically), hydroxyl radical and hyperchlorous acid (the halogenated oxidant assay). Pro-oxidants are not observed with the hydroxyl radical and halogenated oxidant assays. The hydroxyl radical assay is recommended when samples are water-soluble and the halogenated assay when the samples are soluble in organic solvent. This is because solvents such as ethanol, methanol, acetone and DMSO are good quenchers of hydroxyl radicals, and therefore the organic solvents contribute to the antioxidant effect shown by the sample. Organic solvents have little effect, however, on the halogenated oxidant assay.
• 1. The antioxidant agents (referred to as raw materials (RM) hereafter) were first dissolved in an appropriate solvent as detailed in Table 1. • 2. Combinations of three raw materials were prepared for testing by combining one part each of three raw material dilutions, at the concentrations specified in Table 2. • 3. In Table 2 each combination is given a combination number and each combination number is further described as A, B or C, where the concentrations of the raw material dilutions used in B are ten times greater that A, and the concentrations used in C are ten times greater than B (one hundred times greater than A). • 4. The concentrations of raw materials provided in Table 2 are the final concentrations of those materials in the ABEL® antioxidant assay.
Raw material combinations 1, 3, 4, 8 and 9 were assayed at three additional concentrations which are dilutions of concentration A (see Table 2). The details are contained in Table 3.

EC50 mg/mL of pure ingredient (pure raw material, ABEL peroxynitrite assay): 0.0018 mg/mL
Compound: COc1cc2c(cc1O)CCC(C)(C)O2 [RM10, dimethylmethoxy chromanol]
ABEL-RAC contribution in combination (Combination 1): 35221 | ABEL-RAC contribution in combination (Combination 3): 10031 | ABEL-RAC contribution in combination (Combination 4): 9606 | ABEL-RAC contribution in combination (Combination 8): 4832 | Effect of solvent (ethanol rather than IMS) on ABEL peroxynitrite assay result (diluted with IMS versus diluted with ethanol, FIG. 19): does not make an appreciable difference | ABEL-RAC peroxynitrite of pure ingredient (pure raw material, ABEL-RAC = reciprocal of EC50 x 100): 88053
